Source: PubChem BioAssay (NCI)
Values joined by “and” are separate entries in the source; they are usually repeats but may differ in a detail not shown here. Identical values can stand only once.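 Cells were grown in 96-well plates and exposed to each compound for 48 hours at five concentrations; endpoints were interpolated linearly between bracketing concentrations, or set to the highest concentration if not reached. Abbreviation: GI50, concentration required for 50% inhibition of growth. TGI denotes the concentration required for complete inhibition of growth.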

Key:
Experiment in all cases: inhibition of tumour cell growth, NCI panel, 48 h
HT29 colon = system: HT29 colon
SW-620 colon = system: SW-620 colon
SR leukemia = system: SR leukemia
KM12 colon = system: KM12 colon
M14 melanoma = system: M14 melanoma
COLO 205 colon = system: COLO 205 colon
SK-OV-3 ovarian = system: SK-OV-3 ovarian
A498 renal = system: A498 renal
BT-549 breast = system: BT-549 breast
MCF7 breast = system: MCF7 breast

## O=C1N[C@@H](O)[C@@H]2ON=C(c3ccccc3)[C@H]12
HT29 colon
  TGI: > 100 µM
SW-620 colon
  TGI: > 100 µM
SR leukemia
  TGI: > 100 µM
KM12 colon
  TGI: > 100 µM
M14 melanoma
  TGI: > 100 µM
COLO 205 colon
  TGI: > 100 µM
SK-OV-3 ovarian
  TGI: > 100 µM
A498 renal
  TGI: > 100 µM

## O=C1c2ccccc2-c2c1c1ccccc1c(=O)n2CCNCCCNCCn1c2c(c3ccccc3c1=O)C(=O)c1ccccc1-2
BT-549 breast
  GI50: 0.629 µM
  TGI: 1.9 µM
HT29 colon
  GI50: 0.051 µM
SW-620 colon
  GI50: < 0.005 µM
  TGI: 0.58 µM
KM12 colon
  GI50: 0.0193 µM
M14 melanoma
  GI50: 0.257 µM
  TGI: 0.536 µM
COLO 205 colon
  GI50: 0.637 µM
  TGI: 1.59 µM
SK-OV-3 ovarian
  GI50: 1.21 µM
  TGI: 4.83 µM
MCF7 breast
  GI50: 0.0885 µM
A498 renal
  GI50: 0.432 µM
  TGI: 3.33 µM

## O=C(Nc1ccc(S(=O)(=O)N[C@@H](C(=O)O)c2ccccc2)cc1)c1ccc(F)cc1
HT29 colon
  TGI: > 100 µM
SW-620 colon
  TGI: > 100 µM
KM12 colon
  TGI: > 100 µM
M14 melanoma
  TGI: > 100 µM
COLO 205 colon
  TGI: > 100 µM
SK-OV-3 ovarian
  TGI: > 100 µM
A498 renal
  TGI: > 100 µM

## COc1cc(/C=C/C(=N\NC(=O)c2ccccc2)c2sc(Nc3ccc(Cl)c(Cl)c3)nc2C)ccc1O
HT29 colon
  TGI: > 100 µM
SW-620 colon
  TGI: > 100 µM
SR leukemia
  TGI: 62.3 µM
KM12 colon
  TGI: > 100 µM
M14 melanoma
  TGI: 93.4 µM
COLO 205 colon
  TGI: > 100 µM
SK-OV-3 ovarian
  TGI: > 100 µM

## CCOC(=O)Cc1nc(/C(C#N)=C/c2ccco2)[nH]c(=O)c1C#N
HT29 colon
  TGI: > 100 µM
SW-620 colon
  TGI: > 100 µM
SR leukemia
  TGI: > 100 µM
KM12 colon
  TGI: > 100 µM
M14 melanoma
  TGI: > 100 µM
COLO 205 colon
  TGI: > 100 µM
SK-OV-3 ovarian
  TGI: > 100 µM

## COc1ccc(C2C(N)=NCC2c2ccccn2)cc1 (centres undefined)
HT29 colon
  TGI: > 100 µM
SW-620 colon
  TGI: > 100 µM
SR leukemia
  TGI: > 100 µM
KM12 colon
  TGI: > 100 µM
M14 melanoma
  TGI: > 100 µM
COLO 205 colon
  TGI: > 100 µM
SK-OV-3 ovarian
  TGI: > 100 µM
A498 renal
  TGI: > 100 µM

## O=C1CCn2c([nH]c3cccc4cccc2c43)=N1
HT29 colon
  TGI: > 100 µM
SW-620 colon
  TGI: > 100 µM
SR leukemia
  TGI: > 100 µM
M14 melanoma
  TGI: > 100 µM
COLO 205 colon
  TGI: > 100 µM
SK-OV-3 ovarian
  TGI: > 100 µM

## CC(=O)O[C@H]1C(=O)[C@@]2(C)[C@H]([C@H](OC(=O)c3ccccc3)[C@]3([O-])C[C@H](OC(=O)[C@H]([O-])[C@@H](NC(=O)c4ccccc4)c4ccccc4)C(C)=C1C3(C)C)[C@]1(OC(C)=O)CO[C@@H]1C[C@@H]2[O-].[Fe+3]
BT-549 breast
  GI50: 0.309 µM
HT29 colon
  GI50: 0.0236 µM and 0.0328 µM
SW-620 colon
  GI50: 0.0352 µM and 0.0664 µM
  TGI: 19.2 µM and 47.4 µM
SR leukemia
  GI50: 0.0268 µM and 0.199 µM
KM12 colon
  GI50: 0.0324 µM and 0.0623 µM
  TGI: 0.21 µM and 1.21 µM
M14 melanoma
  GI50: 0.11 µM and 0.0637 µM
  TGI: 0.491 µM and 0.391 µM
COLO 205 colon
  GI50: 0.0365 µM and 0.0432 µM
  TGI: 0.226 µM and 0.508 µM
SK-OV-3 ovarian
  GI50: 0.0724 µM and 0.142 µM
  TGI: 11.9 µM and > 100 µM
MCF7 breast
  GI50: 0.0226 µM and 0.0315 µM
  TGI: 65 µM and 32.7 µM

## COc1ccc(/C=C/C(=O)c2sc(-n3nc(-c4ccccc4)cc3-c3ccccc3)nc2C)cc1OC
HT29 colon
  TGI: > 100 µM
SW-620 colon
  TGI: > 100 µM
SR leukemia
  TGI: 78.2 µM
KM12 colon
  TGI: > 100 µM
M14 melanoma
  TGI: > 100 µM
COLO 205 colon
  TGI: > 100 µM
SK-OV-3 ovarian
  TGI: > 100 µM

## CC1CCCC(C(=O)/C(=C/c2cccc(Cl)c2)C(=O)C(=O)O)C1 (centres undefined)
HT29 colon
  TGI: 38.1 µM
SW-620 colon
  TGI: 27.7 µM
KM12 colon
  TGI: 30.6 µM
M14 melanoma
  TGI: 68.5 µM
COLO 205 colon
  TGI: > 100 µM
SK-OV-3 ovarian
  TGI: > 100 µM
A498 renal
  TGI: > 100 µM

## NC1=NC(=O)C(CC(=O)Nc2ccc([N+](=O)[O-])cc2[N+](=O)[O-])S1 (centres undefined)
HT29 colon
  TGI: > 100 µM
SW-620 colon
  TGI: > 100 µM
KM12 colon
  TGI: > 100 µM
M14 melanoma
  TGI: > 100 µM
COLO 205 colon
  TGI: > 100 µM

## Cn1c(N)nc2c(nc(OCc3ccccc3)n2C2OC(CO)C(O)C2O)c1=O (centres undefined)
HT29 colon
  TGI: > 100 µM
SW-620 colon
  TGI: > 100 µM
SR leukemia
  TGI: > 100 µM
KM12 colon
  TGI: > 100 µM
M14 melanoma
  TGI: > 100 µM
COLO 205 colon
  TGI: > 100 µM
SK-OV-3 ovarian
  TGI: > 100 µM
MCF7 breast
  TGI: > 100 µM
A498 renal
  TGI: > 100 µM

## COc1ccccc1C(=O)c1ccc2ccccc2c1
BT-549 breast
  TGI: 52.7 µM
HT29 colon
  TGI: 85.7 µM
SW-620 colon
  TGI: 75.2 µM
SR leukemia
  TGI: 16.1 µM
KM12 colon
  TGI: 33.2 µM
M14 melanoma
  TGI: 58.1 µM
COLO 205 colon
  TGI: 61.5 µM
MCF7 breast
  TGI: > 100 µM

## CC(O)CN1C(=O)NC(Cc2ccccc2)C1=O (centres undefined)
HT29 colon
  TGI: > 100 µM
SW-620 colon
  TGI: > 100 µM
SR leukemia
  TGI: > 100 µM
KM12 colon
  TGI: > 100 µM
M14 melanoma
  TGI: > 100 µM
COLO 205 colon
  TGI: > 100 µM

## Cc1ccc2/c(=C/c3ccc(N(C)C)cc3)c3cc(-c4ccccc4)[n+](C)n3c2c1
HT29 colon
  GI50: 0.0411 µM
  TGI: > 100 µM
SW-620 colon
  GI50: 0.186 µM
  TGI: 1.51 µM
SR leukemia
  GI50: < 0.01 µM
KM12 colon
  GI50: 0.0209 µM
  TGI: 0.12 µM
M14 melanoma
  GI50: 0.0591 µM
  TGI: 2.54 µM
MCF7 breast
  GI50: 0.036 µM
  TGI: 11.3 µM

## CN1CCN(C)C1c1cccc(C2N(C)CCN2C)c1
HT29 colon
  TGI: > 100 µM
KM12 colon
  TGI: > 100 µM
M14 melanoma
  TGI: > 100 µM
COLO 205 colon
  TGI: > 100 µM
SK-OV-3 ovarian
  TGI: > 100 µM
A498 renal
  TGI: > 100 µM

## CC1(C)CCc2cc3c(cc2O1)OCCC3=O
HT29 colon
  TGI: > 100 µM
SW-620 colon
  TGI: > 100 µM
SR leukemia
  TGI: > 100 µM
KM12 colon
  TGI: > 100 µM
M14 melanoma
  TGI: > 100 µM
COLO 205 colon
  TGI: > 100 µM
SK-OV-3 ovarian
  TGI: > 100 µM
A498 renal
  TGI: > 100 µM

## COC(=O)c1c(O)ccc2[nH]c(C)c(C#N)c12
BT-549 breast
  GI50: 64 µM
  TGI: > 100 µM
HT29 colon
  GI50: 60.3 µM
  TGI: > 100 µM
SW-620 colon
  GI50: 45.4 µM
  TGI: > 100 µM
KM12 colon
  GI50: 39.5 µM
  TGI: > 100 µM
M14 melanoma
  GI50: 25.9 µM
  TGI: > 100 µM
COLO 205 colon
  GI50: 88.5 µM
  TGI: > 100 µM
SK-OV-3 ovarian
  GI50: 97.5 µM
  TGI: > 100 µM
MCF7 breast
  GI50: 46.3 µM
  TGI: > 100 µM
A498 renal
  GI50: 20.7 µM
  TGI: 54.2 µM

## CC1(C)OC(=O)C=C([O-])O1.CC1(C)OC(=O)C=C([O-])O1.O=c1c(O)c(-c2ccc([O-])cc2[O-])oc2cc(O)cc(O)c12.[Ti+4]
HT29 colon
  TGI: > 100 µM
SW-620 colon
  TGI: > 100 µM
KM12 colon
  TGI: > 100 µM
M14 melanoma
  TGI: > 100 µM
COLO 205 colon
  TGI: > 100 µM
SK-OV-3 ovarian
  GI50: 83.1 µM
  TGI: > 100 µM
A498 renal
  GI50: 58.1 µM
  TGI: > 100 µM

## O=C1c2ccccc2-c2cccc3ccc(Cc4ccccc4)c1c23
HT29 colon
  TGI: > 100 µM
SW-620 colon
  TGI: > 100 µM
KM12 colon
  TGI: > 100 µM
M14 melanoma
  TGI: > 100 µM
COLO 205 colon
  TGI: > 100 µM

## CC/C=C\C/C=C\C1CC(=O)NCCCNCCCCN1 (centres undefined)
HT29 colon
  TGI: > 100 µM
SW-620 colon
  TGI: > 100 µM
SR leukemia
  TGI: > 100 µM
KM12 colon
  TGI: > 100 µM
M14 melanoma
  TGI: > 100 µM
COLO 205 colon
  TGI: > 100 µM

## CC(=O)OCCOCBr
HT29 colon
  TGI: > 100 µM
SW-620 colon
  TGI: > 100 µM
KM12 colon
  TGI: > 100 µM
M14 melanoma
  TGI: > 100 µM
COLO 205 colon
  TGI: > 100 µM
SK-OV-3 ovarian
  TGI: > 100 µM
A498 renal
  TGI: > 100 µM

## CC1=Nc2c(ccc3c2C(=O)c2ccccc2C3=O)NC(c2ccncc2)C1 (centres undefined)
HT29 colon
  GI50: > 100 µM
  TGI: > 100 µM
SW-620 colon
  TGI: > 100 µM
SR leukemia
  GI50: > 100 µM
KM12 colon
  TGI: > 100 µM
M14 melanoma
  GI50: > 100 µM
  TGI: > 100 µM
SK-OV-3 ovarian
  TGI: > 100 µM
A498 renal
  TGI: > 100 µM
